The source of these data is patent publication US8545903B2 (priority 2009, dated 2013).

In series [1] the test system is influenza virus H9N2 (A/Chicken/Korea/MS96/96). Kind of series: in vitro. The note with it: dog.
Series [2] in a line: in vitro. Particulars: dog.
In series [3] the test system is influenza virus H9N2 (A/Chicken/Korea/MS96/96). Kind of series: microbe, parasite or virus in culture. Particulars: H9N2, MDCK, in Gallus gallus, read-out: EC50, 50% antiviral concentration.
Series [4] has the same test system. Kind of series: microbe, parasite or virus in culture. The note with it: H9N2, MDCK, in Gallus gallus, read-out: EC50, 50% antiviral concentration. The source holds these as a separate data set.
The test system is the same in series [5]. Put plainly: in vitro. Particulars: dog. This is another data set of the same source.
A short description of series [6]: in vitro. The note with it: dog, mdck.
Series [7] addresses neuraminidase (R&D SYSTEM, 4858-NM) of recombinant rvH1N1 influenza A virus of 1918 Spanish flu virus (A/Bervig_Mission/1/18) (Influenza A virus, UniProt Q9IGQ6). Kind of series: biochemical. Also on record: species or system influenza A virus A/Bervig_Mission/1/18 (rvH1N1).
Series [8] concerns influenza virus H9N2 (A/Chicken/Korea/MS96/96). Particulars: read-out: EC50, 50% antiviral concentration.
Series [9] deals with Madin-Darby canine kidney (MDCK, ATCC CCL-34) cell.
Series [10] addresses neuraminidase of recombinant rvH1N1 influenza A virus (A/Bervig_Mission/1/18) (Influenza A virus, UniProt Q9IGQ6). Kind of series: biochemical.
The subject of series [11] is influenza virus H9N2 (A/Chicken/Korea/MS96/96). Particulars: read-out: EC50, 50% antiviral concentration. The source holds these as a separate data set.
For series [12] the following is noted: in vivo; cited from earlier work.
The conditions of series [13]: in vivo; cited from earlier work. The source holds these as a separate data set.
For series [14], the system named is influenza virus H9N2 (A/Chicken/Korea/MS96/96). Put plainly: microbe, parasite or virus in culture. Particulars: H9N2, MDCK, in Gallus gallus, read-out: EC50, 50% antiviral concentration. The source holds these as a separate data set.
For series [15] the test system is unchanged. Kind of series: microbe, parasite or virus in culture. The note with it: H9N2, MDCK, in Gallus gallus, read-out: EC50, 50% antiviral concentration. This is another data set of the same source.
[16] abbreviates: read-out: Neuraminidase inhibitory activity (IC50) A/Bervig-Mission/1/18 (rvH1N1).

Like-named read-outs stand apart in the source and are kept apart here.

Chain of neuraminidase of recombinant rvH1N1 influenza A virus (A/Bervig_Mission/1/18) (Q9IGQ6 whole entry, looked up): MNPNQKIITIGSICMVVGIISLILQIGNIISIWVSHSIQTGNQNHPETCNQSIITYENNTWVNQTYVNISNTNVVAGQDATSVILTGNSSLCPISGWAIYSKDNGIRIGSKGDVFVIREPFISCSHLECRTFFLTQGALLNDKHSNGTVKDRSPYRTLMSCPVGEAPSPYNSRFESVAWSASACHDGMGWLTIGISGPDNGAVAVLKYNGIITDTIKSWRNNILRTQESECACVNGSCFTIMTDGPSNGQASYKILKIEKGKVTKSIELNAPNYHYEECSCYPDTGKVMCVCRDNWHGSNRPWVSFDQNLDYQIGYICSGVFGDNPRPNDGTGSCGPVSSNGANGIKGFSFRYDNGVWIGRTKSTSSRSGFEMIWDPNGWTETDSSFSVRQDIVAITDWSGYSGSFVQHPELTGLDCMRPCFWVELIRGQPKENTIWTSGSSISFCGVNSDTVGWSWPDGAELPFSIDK
Chain of neuraminidase (R&D SYSTEM, 4858-NM) of recombinant rvH1N1 influenza A virus of 1918 Spanish flu virus (A/Bervig_Mission/1/18) (Q9IGQ6 36-469 limits assumed): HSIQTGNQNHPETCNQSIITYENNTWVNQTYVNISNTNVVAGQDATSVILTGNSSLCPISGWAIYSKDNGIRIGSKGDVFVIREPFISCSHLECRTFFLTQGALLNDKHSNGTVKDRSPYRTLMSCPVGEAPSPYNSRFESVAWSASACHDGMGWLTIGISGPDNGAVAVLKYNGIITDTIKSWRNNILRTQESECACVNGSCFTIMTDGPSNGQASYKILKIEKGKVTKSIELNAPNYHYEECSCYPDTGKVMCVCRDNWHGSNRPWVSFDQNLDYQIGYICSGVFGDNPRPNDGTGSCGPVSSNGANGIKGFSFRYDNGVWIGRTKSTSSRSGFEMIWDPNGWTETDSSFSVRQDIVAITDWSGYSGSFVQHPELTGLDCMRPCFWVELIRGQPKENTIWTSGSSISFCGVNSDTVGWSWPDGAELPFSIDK

On to `CCOC(=O)C1=C[C@@H](OC(CC)CC)[C@H](NC(C)=O)[C@@H](N)C1` [Tamiflu, reference compound], for which the selectivity ratio in series [1] and in series [5] was > 200 each time. The CC50 in the series “in vitro [2]” was > 200 µM. Besides, the EC50 in series [3] and in series [4] was < 1 µM throughout.

`COc1cc(/C=C/C(=O)/C=C(O)/C=C/c2ccc(O)cc2)ccc1O` [Demethoxycurcumin] registered a CC50 in the series “in vitro [6]” of 97 µM. Moreover, the IC50 in [7] stood at 3 µM.

Take Bisdemethoxycurcumin: the EC50 is 182 µM in series [8] and > 200 µM in series [11]. For the same molecule, the CC50 in series [9] was > 200 µM. Further, in series [10] (setting [16]), the IC50 was found to be 6 µM.

Turning to Demethoxycurcumin, the CC50 in [9] came out at 97 µM. The IC50 in [10] (setting [16]) was found to be 3 µM.

Take `CCOC(=O)C1=C[C@@H](OC(CC)CC)[C@H](NC(C)=O)[C@@H](N)C1` [Oseltamivir]: the side effects result in series [12] is “severe vomiting”.

As to `COc1cc(/C=C/C(=O)/C=C(O)/C=C/c2ccc(O)c(OC)c2)ccc1O` [Curcumin], in the series “in vitro [2]”, the CC50 was 94.1 µM. For the same molecule, in series [10], the IC50 was found to be 3 µM.

Take `NC12CC3CC(CC(C3)C1)C2` [Amatadine]: the side effects entry in [12] is “severe side effects occur in the nervous system and stomach”.

On to `CC(=O)N[C@H]1[C@H]([C@H](O)[C@H](O)CO)OC(C(=O)O)=C[C@@H]1N=C(N)N` [Zanamivir], for which, in series [13], the “release from the kidney” value is on record as “quick release from the kidney”.

On to `CC(N)C12CC3CC(CC(C3)C1)C2` (centres unmarked) [Rimatadine], for which the side effects entry in series [12] is “severe side effects occur in the nervous system and stomach”.

For the molecule `O=C(/C=C(O)/C=C/c1ccc(O)cc1)/C=C/c1ccc(O)cc1` [Bisdemethoxycurcumin], the CC50 in the series “in vitro [6]” was > 200 µM. For the same molecule, the EC50 was > 200 µM in series [14] and 182 µM in series [15]. Moreover, the IC50 in series [7] was determined as 6 µM.
